These results are taken from patent publication US20160045505A1, “COMPOUNDS AND COMPOSITIONS FOR THE TREATMENT OF PARASITIC DISEASES” (NOVARTIS AG, priority 2013, published 2016).

As a reminder, the EC50 is the midpoint of the concentration-response curve.

SMILES strings stand for the structures. Read-outs that look alike come from different tables or passages of the source.

For experiment [1], the system named is Trypanosoma brucei Lister 427 strain, bloodstream form. Briefly: Assay for proliferation of kinetoplastid parasite Trypanosoma brucei (Cell Titer Glo, 48 hours). Type of experiment: cell-based. The settings on record: Trypanosoma brucei, read-out: T. brucei EC50. A digest of the protocol: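 Bloodstream-form T. brucei Lister 427 in HMI-9 medium was exposed to compound (DMSO vehicle) for 48 hours at 37° C, 5% CO2. Parasite growth was read as ATP by CellTiter-Glo luminescence, with EC50 calculated from percent inhibition.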
(In general: Cellular ATP, detected with luciferase, serves as a proxy for viable cell number.)

The subject of experiment [2] is Trypanosoma cruzi amastigotes (Tulahuen strain expressing Lac-Z) cultured in 3T3 fibroblast cells. Put plainly: microbe, parasite or virus in culture. The experiment is classed as cell-based. The note with it: Trypanosoma cruzi, TULAHUEN, Fibroblast, T. cruzi amastigotes in 3T3 fibroblast cells, read-out: T cruzi EC50.
For experiment [3], the system named is L. donovani HU3 strain in mouse peritoneal macrophages. Briefly: Assay for proliferation of Leishmania parasites in infected mouse peritoneal macrophages (SybrGreen staining, high-content imaging, 5 days). The experiment is classed as cell-based, Leishmania donovani. The settings on record: Leishmania donovani, Peritoneal macrophage, L. donovani in mouse peritoneal macrophages, read-out: L. donovani Macrophage EC50.

In experiment [4] the test system is Leishmania donovani axenic amastigote parasites. Put plainly: Leishmania donovani axenic amastigote proliferation assay (Cell TiterGlo luminescence, 2 day incubation). The settings on record: Leishmania donovani, read-out: L. donovani amastigotes EC50. The experiment is classed as cell-based.
[5] abbreviates: T. brucei Lister 427 bloodstream form, inhibition of proliferation.
Setting [6] is: axenic amastigotes, inhibition of proliferation.
[7] abbreviates: T. brucei Lister 427 bloodstream form.

On to `CC1(C(=O)Nc2cnc3nc(-c4cc(NC(=O)N5CCCC5)ccc4F)cn3c2)CCC1` [Compound 145], for which the EC50 is 45 nM in experiment [1] (setting [5]), 1730 nM in experiment [2] (inhibition of proliferation), 464 nM in experiment [3] (inhibition of proliferation) and 223 nM in experiment [4] (setting [6]).
As for `CCNc1cnc2nc(-c3cc(NC(=O)c4oc(C)nc4C)ccc3F)cn2c1` [Compound 582, N-(3-(6-(ethylamino)imidazo[1,2-a]pyrimidin-2-yl)-4-fluorophenyl)-2,4-dimethyloxazole-5-carboxamide], the EC50 in experiment [1] (setting [7]) was 476 nM; in experiment [2], 466 nM; in experiment [3], 928 nM; in experiment [4] (L. donovani axenic amastigotes) it was 585 nM.
For `O=C(Nc1ccc(F)c(-c2cn3cc(-c4ccccn4)cnc3n2)c1)N1CC(F)(F)C1` [Compound 296, 3,3-difluoro-N-(4-fluoro-3-(6-(pyridin-2-yl)imidazo[1,2-a]pyrimidin-2-yl)phenyl)azetidine-1-carboxamide], the EC50 came to 12 nM in experiment [1], 14 nM in experiment [2] (inhibition of proliferation), 13 nM in experiment [3] (inhibition of proliferation) and 4 nM in experiment [4] (setting [6]).
As to `O=C(Nc1ccc(F)c(-c2cn3cc(-c4cccnc4)cnc3n2)c1)N1CCC1` [Compound 405], the concentration giving a half-maximal response (EC50) in experiment [1] (setting [7]) was 13 nM; in experiment [2], 271 nM; in experiment [3], 361 nM; in experiment [4] (L. donovani axenic amastigotes), 94 nM.
Taken in the same sequence, the figures for `Cc1nc(C)c(C(=O)Nc2ccc(F)c(-c3cn4cc(N5CCCC5)cnc4n3)c2)o1` [Compound 493] were 40 nM, 31 nM, 192 nM and 260 nM.
Take `Cc1nc(C)c(C(=O)Nc2ccc(F)c(-c3cn4cc(NC(=O)N5CCNC5=O)cnc4n3)c2)o1` [Compound 224]: the EC50 in experiment [1] (setting [5]) is 757 nM; in experiment [2] (inhibition of proliferation), over 20000 nM; in experiment [3] (inhibition of proliferation), over 50000 nM; in experiment [4] (setting [6]) it was 1410 nM.
For `CC(=O)c1ccc(-c2cnc3nc(-c4cc(NC(=O)c5oc(C)nc5C)ccc4F)cn3c2)cn1` [Compound 437], the EC50 in experiment [1] (setting [7]) was 403 nM; in experiment [2], 682 nM; in experiment [3], 1250 nM; in experiment [4] (L. donovani axenic amastigotes), 80 nM.
Take `Cc1nc(C)c(C(=O)Nc2ccc(F)c(-c3cn4cc(NC(=O)[C@](C)(O)C(F)(F)F)cnc4n3)c2)o1` [Compound 163]: the EC50 in experiment [1] (setting [5]) came to 399 nM; in experiment [2] (inhibition of proliferation), 10900 nM; in experiment [3] (inhibition of proliferation), 4450 nM; in experiment [4] (setting [6]), 830 nM.
As to `Cc1nc(C)c(C(=O)Nc2ccc(F)c(-c3cn4cc(NC(=O)C5CN(C)CCO5)cnc4n3)c2)o1` (centres unmarked) [Compound 152], the EC50 in experiment [1] (setting [5]) is 425 nM; in experiment [2] (inhibition of proliferation), 4670 nM; in experiment [3] (inhibition of proliferation) it was 2380 nM; in experiment [4] (setting [6]) it was 1730 nM.
On to `CC(C)OC(=O)Nc1cnc2nc(-c3cc(NC(=O)N4CC[C@@H](F)C4)ccc3Cl)cn2c1` [Compound 267], for which the EC50 in experiment [1] (setting [5]) stood at 116 nM; in experiment [2] (inhibition of proliferation) it was 1920 nM; in experiment [3] (inhibition of proliferation), 1800 nM; in experiment [4] (setting [6]) it was 485 nM.
Regarding `COCCN(C(=O)OC(C)C)c1cnc2nc(-c3cc(NC(=O)c4oc(C)nc4C)ccc3F)cn2c1` [Compound 555], the EC50 in experiment [1] (setting [7]) amounted to 1570 nM; in experiment [2] it was 1320 nM; in experiment [3], 5470 nM; in experiment [4] (L. donovani axenic amastigotes) it was 3110 nM.
For the compound `CC(C)OC(=O)Nc1cnc2nc(-c3cc(NC(=O)CN4CCCC4)ccc3F)cn2c1` [Compound 110], the EC50 was 27700 nM in experiment [1] (setting [5]), 9590 nM in experiment [2] (inhibition of proliferation), 8100 nM in experiment [3] (inhibition of proliferation) and over 25000 nM in experiment [4] (setting [6]).
Consider `COC1CCC(C(=O)Nc2ccc(F)c(-c3cn4cc(C5CC5)cnc4n3)c2)CC1` (centres unmarked) [Compound 597], for which the EC50 in experiment [1] (setting [7]) was determined as 31400 nM; in experiment [2], 16000 nM; in experiment [3], 17100 nM; in experiment [4] (L. donovani axenic amastigotes) it was 24100 nM.
As to `Cc1nc(C)c(C(=O)Nc2ccc(F)c(-c3cn4cc(-c5ncc(F)cc5F)cnc4n3)c2)o1` [Compound 447], the EC50 was found to be 103 nM in experiment [1] (setting [7]), 20 nM in experiment [2], 1380 nM in experiment [3] and 36 nM in experiment [4] (L. donovani axenic amastigotes).
`Cc1ccc(C(=O)Nc2ccc(F)c(-c3cn4cc(NC(=O)OC(C)C)cnc4n3)c2)o1` [Compound 80]: the EC50 in experiment [1] (setting [5]) was 59 nM; in experiment [2] (inhibition of proliferation), 63 nM; in experiment [3] (inhibition of proliferation), 244 nM; in experiment [4] (setting [6]), 89 nM.
As for `CN(C)C(=O)Nc1ccc(F)c(-c2cn3cc(C4=CCOCC4)cnc3n2)c1` [Compound 324], the EC50 stood at 47 nM in experiment [1] (setting [5]), 253 nM in experiment [2] (inhibition of proliferation), 1570 nM in experiment [3] (inhibition of proliferation) and 288 nM in experiment [4] (setting [6]).
As for `Cc1nc(C)c(C(=O)Nc2ccc(F)c(-c3cn4cc(NC(=O)[C@@H]5[C@H](N)[C@@H]6C=C[C@H]5C6)cnc4n3)c2)o1` [Compound 180], the EC50 was 4380 nM in experiment [1] (setting [5]), over 20000 nM in experiment [2] (inhibition of proliferation), over 50000 nM in experiment [3] (inhibition of proliferation) and over 25000 nM in experiment [4] (setting [6]).
As for `O=C(Nc1ccc(F)c(-c2cn3cc(C4CC4)cnc3n2)c1)N1CC[C@@H](F)C1` [Compound 605], the EC50 in experiment [1] (setting [7]) came out at 13 nM; in experiment [2], 16 nM; in experiment [3] it was 59 nM; in experiment [4] (L. donovani axenic amastigotes) it was 21 nM.
`Cc1nc(C)c(C(=O)Nc2ccc(F)c(-c3cn4cc(Cl)cnc4n3)c2)o1` [Compound 205]: the EC50 came to 352 nM in experiment [1] (setting [5]), 413 nM in experiment [2] (inhibition of proliferation), 1240 nM in experiment [3] (inhibition of proliferation) and 300 nM in experiment [4] (setting [6]).
For the compound `Cn1ccnc1C(=O)Nc1cnc2nc(-c3cc(NC(=O)N4CCCC4)ccc3F)cn2c1` [Compound 144], the concentration giving a half-maximal response (EC50) in experiment [1] (setting [5]) was 164 nM; in experiment [2] (inhibition of proliferation) it was over 20000 nM; in experiment [3] (inhibition of proliferation), over 50000 nM; in experiment [4] (setting [6]) it was 555 nM.
Turning to `CC(C)OC(=O)Nc1ccc(F)c(-c2cn3cc(C(F)(F)F)cnc3n2)c1` [Compound 301, isopropyl (4-fluoro-3-(6-(trifluoromethyl)imidazo[1,2-a]pyrimidin-2-yl)phenyl)carbamate], the EC50 in experiment [1] was 307 nM; in experiment [2] (inhibition of proliferation) it was 444 nM; in experiment [3] (inhibition of proliferation), over 32400 nM; in experiment [4] (setting [6]), 727 nM.
Turning to `Cc1nc(C)c(C(=O)Nc2ccc(F)c(-c3cn4cc(NC(=O)C5COCCO5)cnc4n3)c2)o1` (centres unmarked) [Compound 113], the EC50 was found to be 452 nM in experiment [1] (setting [5]), 2990 nM in experiment [2] (inhibition of proliferation), 502 nM in experiment [3] (inhibition of proliferation) and 257 nM in experiment [4] (setting [6]).
On to `O=C(Nc1ccc(F)c(-c2cn3cc(F)cnc3n2)c1)N1CC(F)(F)C1` [Compound 233], for which the EC50 in experiment [1] (setting [5]) is 326 nM; in experiment [2] (inhibition of proliferation), 754 nM; in experiment [3] (inhibition of proliferation), 2050 nM; in experiment [4] (setting [6]) it was 290 nM.
Take `Cc1nc(C)c(C(=O)Nc2ccc(F)c(-c3cn4cc(NC5=NC(C)(C)CO5)cnc4n3)c2)o1` [Compound 505]: the EC50 in experiment [1] (setting [7]) amounted to 845 nM; in experiment [2] it was 5000 nM; in experiment [3], 3480 nM; in experiment [4] (L. donovani axenic amastigotes), 1170 nM.
As for `Cc1nc(C)c(C(=O)Nc2ccc(F)c(-c3cn4cc(OC(C)C)cnc4n3)c2)o1` [Compound 608, N-(4-fluoro-3-(6-isopropoxyimidazo[1,2-a]pyrimidin-2-yl)phenyl)-2,4-dimethyloxazole-5-carboxamide], the EC50 was determined as 159 nM in experiment [1] (setting [7]), 132 nM in experiment [2], 456 nM in experiment [3] and 127 nM in experiment [4] (L. donovani axenic amastigotes).
`Cc1nc(C)c(C(=O)Nc2ccc(F)c(-c3cn4cc(OCC5CC5)cnc4n3)c2)o1` [Compound 610]: the EC50 came to 150 nM in experiment [1] (setting [7]), 109 nM in experiment [2], 269 nM in experiment [3] and 121 nM in experiment [4] (L. donovani axenic amastigotes).
